Patent US20220332799A1, “HERV INHIBITORS FOR USE IN TREATING TAUOPATHIES” (Deutsches Zentrum Für Neurodegenerative Erkrankungen E.V. …, priority 2019, published 2022)

Test system: HEK Tau-FRsol cells
Test: Tau-FR aggregate induction by coculture with MCF-7 Tau-GFPAD donor cells
Format: cell-based, human
Conditions: donors pretreated with 2 μM for 4 d; coculture 3 d without drug; vs DMSO
Experimental: FIG. 14: Human endogenous retroviruses contribute to the spreading of protein aggregates. • a. Experimental workflow. A human breast cancer cell line MCF-7 (4) was engineered to stably express Tau-GFP and induced to propagate Tau aggregates by exposure to Alzheimer's disease brain homogenate (AD). A single cell clone was subsequently isolated and used in the experiment (MCF-7 Tau-GFPAD). This donor clone was treated with 2 μM 5-Aza-2-deoxycytidine (Aza) for 4 d to de-repress HERV expression. Pretreated donor cells were cocultured with HEK-Tau-FRsol cells. • b. […] Statistics: Unpaired Student's t-test (n=3). • c. Quantitative analysis of recipient cells with induced Tau-FR aggregates following coculture with DMSO-treated or Aza-treated donor cells. […] Recipients were subsequently cocultured with transduced donors that had been passaged at least 5 times post transduction. • e. shRNA-mediated downregulation of Syncytin-1 mRNA in MCF-7 Tau-GFPAD cells assessed by quantitative real-time PCR. […] Quantitative analysis of recipient cells with induced Tau-FR aggregates following coculture with donors with decreased HERV-W Syncytin-1 expression. […]
To inhibit methyltransferase, MCF-7 Tau-GFPAD cells were treated with 2 μM Aza or DMSO for 4 d. […] Afterwards, the total numbers of viable cells and the viability upon drug treatments were determined using the Vi-VELLTMXR Cell Viability Analyzer (Beckman Coulter). […]

Nc1ncn([C@H]2C[C@H](O)[C@@H](CO)O2)c(=O)n1 [Decitabine, 5-aza-2′-deoxycytidine]
recipient cells with induced Tau-FR aggregates in cocultures: increased recipient cells with aggregates in cocultures
